# In US9314026B2, “Heterocyclylpyri(mi)dinylpyrazole” (Bayer Intellectual Property GmbH, priority 2011, dated 2016):
# How the values were obtained:
# [1] = determination of the log P values by HPLC on a reverse phase column (C18), EEC-Directive 79/831 Annex V.A8; assay type: physicochemical
# Method: Method A Note on the determination of the log P values and mass detection: The stated log P values were determined in accordance with EEC-Directive 79/831 Annex V.A8 by HPLC (High Performance Liquid Chromatography) on a reverse phase column (C18). […] The mass detection was effected with an […] system. Method B Note on the determination of the log P values and mass detection: The stated log P values were determined in accordance with EEC-Directive 79/831 Annex V.A8 by HPLC (High Performance Liquid Chromatography) on a reverse phase column (C18). […] The mass detection was effected with the Micronass ZQ2000 mass detector from Waters. Method C Note on the determination of the log P values and mass detection: The stated log P values were determined in accordance with EEC-Directive 79/831 Annex V.A8 by UPLC (Ultra Performance Liquid Chromatography) on a reverse phase column (C18). […] The mass detection was effected with the LCT Premier or SQD mass detector from Waters.
# Sphaerotheca fuliginea = experiment: Sphaerotheca test (cucumber)/preventive; assay type: in vivo; details: Podosphaera fuliginea, 168 h, 500 ppm of active ingredient, preventive, evaluated 7 days after inoculation, 0% = untreated control, 100% = no disease, read-out: efficacy
# Method: (§1) Sphaerotheca Test (Cucumber)/Preventive Solvent: 49 parts by weight of N,N-Dimethylformamide Emulsifier: 1 part by weight of Alkylarylpolyglycolether To produce a suitable preparation of active compound, 1 part by weight of active compound is mixed with the stated amounts of solvent and emulsifier, and the concentrate is diluted with water to the desired concentration. To test for preventive activity, young plants are sprayed with the preparation of active compound at the stated rate of application. One day after this treatment, the plants are inoculated with an aqueous spore suspension of Sphaerotheca fuliginea.
# Alternaria solani = experiment: Alternaria test (tomato)/preventive; assay type: in vivo; details: 168 h, 500 ppm of active ingredient, preventive, evaluated 7 days after inoculation, read-out: efficacy
# Method: as §1, with “Alternaria” for “Sphaerotheca”, “(Tomato)/Preventive” for “(Cucumber)/Preventive”, “Alternaria solani. […] Then the plants are placed in an incubation cabinet at approximately 20° C. and a relative atmospheric humidity of 96%.” for “Sphaerotheca fuliginea.”
# Leptosphaeria nodorum = experiment: Leptosphaeria test (wheat)/preventive; assay type: in vivo; details: Parastagonospora nodorum, 500 ppm of active ingredient, preventive, evaluated 7-9 days after inoculation, read-out: efficacy
# Method: (§2) Leptosphaeria Test (Wheat)/Preventive Solvent: 49 parts by weight of N,N-Dimethylformamide Emulsifier: 1 part by weight of Alkylarylpolyglycolether To produce a suitable preparation of active compound, 1 part by weight of active compound is mixed with the stated amounts of solvent and emulsifier, and the concentrate is diluted with water to the desired concentration. To test for preventive activity, young plants are sprayed with a preparation of active compound at the stated rate of application. One day after this treatment, the plants are inoculated with an aqueous spore suspension of Leptosphaeria nodorum.
# Pyrenophora teres = experiment: Pyrenophora test (barley)/preventive; assay type: in vivo; details: 500 ppm of active ingredient, preventive, evaluated 7-9 days after inoculation, read-out: efficacy
# Method: as §1, with “Pyrenophora” for “Sphaerotheca”, “(Barley)/Preventive” for “(Cucumber)/Preventive”, “Pyrenophora teres.” for “Sphaerotheca fuliginea.”
# Puccinia recondita = experiment: Puccinia test (wheat)/preventive; assay type: in vivo; details: 500 ppm of active ingredient, preventive, evaluated 7-9 days after inoculation, read-out: efficacy
# Method: as §2, with “Puccinia Test (Wheat)/Preventive” for “Leptosphaeria Test (Wheat)/Preventive”, “sprayed with the preparation of” for “sprayed with a preparation of”, “suspension of Puccinia recondita.” for “suspension of Leptosphaeria nodorum.”
# Pyricularia oryzae = experiment: whole plant or invertebrate; assay type: in vivo; details: 168 h, read-out: efficacy
# Phytophthora infestans = experiment: whole plant or invertebrate; assay type: in vivo; details: 72 h, read-out: efficacy
# Venturia inaequalis = experiment: Venturia test (apples)/preventive; assay type: in vivo; details: 100 ppm of active ingredient, preventive, evaluated 10 days after inoculation
# Method: (§3) Venturia Test (Apples)/Preventive Solvent: 24.5 parts by weight of acetone • 24.5 parts by weight of dimethylacetamide Emulsifier: 1 part by weight of alkylaryl polyglycol ether To produce a suitable preparation of active compound, 1 part by weight of active compound is mixed with the stated amounts of solvent and emulsifier, and the concentrate is diluted with water to the desired concentration. To test for preventive activity, young plants are sprayed with the preparation of active compound at the stated rate of application.
# Botrytis cinerea = experiment: Botrytis test (beans)/preventive; assay type: in vivo; details: 48 h, 100 ppm of active ingredient, preventive, size of lesions evaluated 2 days after inoculation, read-out: efficacy
# Method: as §3, with “Botrytis” for “Venturia”, “(Beans)/Preventive” for “(Apples)/Preventive”, “compound. After” for “compound at”, “spray coating has dried on, 2 small pieces” for “stated rate”, “agar covered with growth of Botrytis cinerea are placed on each leaf.” for “application.”
# Septoria tritici = experiment: Septoria tritici-test (wheat)/preventive; assay type: in vivo; details: 500 ppm of active ingredient, preventive, evaluated 21 days after inoculation
# Method: Septoria tritici-Test (Wheat)/Preventive Solvent: 49 parts by weight of n,n-dimethylacetamid Emulsifier: 1 part by weight of alkylaryl polyglycol ether To produce a suitable preparation of active compound, 1 part by weight of active compound or active compound combination is mixed with the stated amounts of solvent and emulsifier, and the concentrate is diluted with water to the desired concentration. To test for preventive activity, young plants are sprayed with the preparation of active compound or active compound combination at the stated rate of application. After the spray coating has been dried, the plants are sprayed with a spore suspension of Septoria tritici.
# [2] = tested on: Fusarium nivale (var. majus); experiment: Fusarium nivale (var. majus)-test (wheat)/preventive; assay type: in vivo; details: Microdochium nivale, 120 h, 500 ppm of active ingredient, preventive, evaluated 5 days after inoculation, read-out: efficacy
# Method: Fusarium nivale (Var. Majus)-Test (Wheat)/Preventive Solvent: 49 parts by weight of n,n-dimethylacetamid Emulsifier: 1 part by weight of alkylaryl polyglycol ether To produce a suitable preparation of active compound, 1 part by weight of active compound or active compound combination is mixed with the stated amounts of solvent and emulsifier, and the concentrate is diluted with water to the desired concentration. To test for preventive activity, young plants are sprayed with the preparation of active compound or active compound combination at the stated rate of application. After the spray coating has been dried, the plants are slightly injured by using a sandblast and afterwards they are sprayed with a conidia suspension of Fusarium nivale (var. majus).
# Fusarium graminearum = experiment: whole plant or invertebrate; assay type: in vivo; details: in Hordeum vulgare, 120 h, read-out: efficacy
# Plasmopara viticola = experiment: Plasmopara test (grapevines)/preventive; assay type: in vivo; details: 100 ppm of active ingredient, preventive, evaluated 6 days after inoculation
# Method: as §3, with “Plasmopara” for “Venturia”, “(Grapevines)/Preventive” for “(Apples)/Preventive”, “application. […] The plants are then misted and placed for 1 day in an incubation cabinet.” for “application.”
Structure (SMILES),chromatographic logP [1],pest or weed control at 500 ppm (Sphaerotheca fuliginea),pest or weed control at 500 ppm (Alternaria solani),pest or weed control at 500 ppm (Leptosphaeria nodorum),pest or weed control at 500 ppm (Pyrenophora teres),pest or weed control at 500 ppm (Puccinia recondita),pest or weed control at 500 ppm (Pyricularia oryzae),pest or weed control at 100 ppm (Phytophthora infestans),efficacy (Venturia inaequalis),pest or weed control at 100 ppm (Botrytis cinerea),efficacy (Septoria tritici),pest or weed control at 500 ppm [2],pest or weed control at 500 ppm (Fusarium graminearum),efficacy (Plasmopara viticola)
"CC(=O)N(C(C)=O)c1cc(-c2c(-c3ccccc3)nn3c2CCCC3)ccn1 [Example 2, N-acetyl-N-[4-(2-phenyl-4,5,6,7-tetrahydropyrazolo[1,5-a]pyridin-3-yl)pyridin-2-yl]acetamide]",2.22,96%,100%,95%,100%,100%,70%,95%,71%,87%,100%,100%,100%,
"CCC(=O)N(C(=O)C(C)C)c1cc(-c2c(-c3ccc(F)cc3)nn3c2CCOC3C)ccn1 (stereo not shown) [Example 3, N-{4-[2-(4-fluorophenyl)-7-methyl-4,5-dihydropyrazolo[1,5-c][1,3]oxazin-3-yl]pyridin-2-yl}-2-methyl-N-propionylpropanamide]",3.83,95%,90%,90%,100%,95%,90%,91%,95%,88%,100%,100%,89%,
"CC(=O)N(C(C)=O)c1cc(-c2c(-c3ccsc3)nn3c2CCCC3)ccn1 [Example 4, N-acetyl-N-{4-[2-(3-thienyl)-4,5,6,7-tetrahydropyrazolo[1,5-a]pyridin-3-yl]pyridin-2-yl}acetamide]",2.18,,90%,95%,95%,,95%,95%,95%,95%,,,,
"CC(=O)N(C(C)=O)c1cc(-c2c(-c3cccs3)nn3c2CCCC3)ccn1 [Example 8, N-acetyl-N-{4-[2-(2-thienyl)-4,5,6,7-tetrahydropyrazolo[1,5-a]pyridin-3-yl]pyridin-2-yl}acetamide]",2.18,95%,89%,89%,100%,89%,95%,83%,,,,92%,88%,
"CCC(=O)N(C(=O)C1CC1)c1cc(-c2c(-c3ccc(F)cc3)nn3c2CCC3)ccn1 [Example 9, N-{4-[2-(4-fluorophenyl)-5,6-dihydro-4H-pyrrolo[1,2-b]pyrazol-3-yl]pyridin-2-yl}-N-propionylcyclopropanecarboxamide]",2.87,100%,,95%,95%,100%,90%,79%,100%,96%,,,,95%
"CC(=O)N(C(C)=O)c1cc(-c2c(-c3ccc(F)cc3)nn3c2CCOC3C)ccn1 (stereo not shown) [Example 10, N-acetyl-N-{4-[2-(4-fluorophenyl)-7-methyl-4,5-dihydropyrazolo[1,5-c][1,3]oxazin-3-yl]pyridin-2-yl}acetamide]",2.56,95%,90%,90%,95%,95%,,,,,80%,100%,94%,
"CCOC(=O)N(C(=O)C1CC1)c1cc(-c2c(-c3ccc(F)cc3)nn3c2CCC3)ccn1 [Example 11, ethyl (cyclopropylcarbonyl){4-[2-(4-fluorophenyl)-5,6-dihydro-4H-pyrrolo[1,2-b]pyrazol-3-yl]pyridin-2-yl}carbamate]",2.78,95%,95%,95%,95%,100%,70%,86%,,74%,,,,90%
